Assay results as given in patent US11332485B2, “Penicillin-binding protein inhibitors” (priority 2017, dated 2022).

Experiments:
[1] = target: T1, E. coli K12 PBP1a (Escherichia coli, UniProt P02918); test: Bocillin FL competition binding assay (SDS-PAGE gel, membrane PBPs); settings: 15 min. pre-incubation, membrane protein extracts, SDS-PAGE fluorescence scan
T1 construct: 100 μg's of total membrane protein extracts containing PBPs; endogenous in cells; host or cells: Escherichia coli K12 membrane fraction
Procedure: (§1) To determine the ability of test compounds to bind Penicillin Binding Proteins (PBPs), a competition binding assay using Bocillin FL (fluorescent derivative of penicillin V) was adapted from the classical method used to assess PBP potency of beta-lactams.
(§2) Penicillin binding proteins were isolated from Escherichia coli K12 by growth of Escherichia coli K12 from a single colony in 4 L of Luria-Bertani (LB) broth at 35° C. and 250 rpm to an OD600 nm of 0.5. The cells were harvested by centrifugation at 7,000×g for 10 min. at 4° C. Cells were resuspended and washed in 50 mM potassium phosphate pH 7.5. The cells were re-suspended in sonication buffer [50 mM Tris-HCl pH 7.5, 1 mM MgCl2, 1 mM beta-mercaptoethanol, and 5 μg/mL DNAse I] and sonicated by 4 passes of 30 seconds at 45 W on ice. The sample was clarified by centrifugation at 3,000×g to remove cell debris and unbroken cells and supernatant containing the membrane proteins was retained. The membrane proteins including the PBPs were further purified from soluble constituents by an ultracentrifugation step at 100,000×g for 30 min. at 4° C. The membrane proteins are washed twice with 10 mM sodium phosphate pH 7, resuspended in a volume of 5 mL, quantitated by BCA assay, adjusted to […] and frozen at −80° C. until use.
(§3) The adapted Bocillin FL competition binding assay described herein incorporates a 15 min. pre-incubation of test compound with isolated PBPs to attempt to balance the difference in mechanism of inhibition between beta-lactams (largely irreversible covalent bond to active site Serine) and the boron-containing PBP inhibitor test compounds (reversible covalent bond to active site Serine). Briefly, 50 μL reactions consisted of 100 μg's of total membrane protein extracts containing PBPs incubated with a dilution series of test compound ranging from 0.005 μg/mL to 2,480 μg/mL in 10 mM sodium phosphate pH7 containing 350 mM NaCl. Thirty minute reactions at 35° C. were initiated by addition of […] Bocillin FL, quenched by addition of SDS-PAGE loading buffer containing sodium dodecyl sulfate (SDS) and heated for 15 minutes at 95° C. to denature proteins in preparation for SDS-polyacrylamide gel electrophoresis. The Bocillin FL labeled PBPs are then separated by SDS-PAGE in Novex NuPage 10% Bis-Tris pre-cast gels (Invitrogen). The SDS-PAGE gel, post-electrophoresis, is then washed in water to remove excess SDS for 10 minutes at room temperature and placed on the scanning bed of a GE Healthcare/Amersham Biosciences Storm 860 fluorescence scanner. […] Effective PBP inhibitors are detected by a reduction in Bocillin FL labeling of the particular PBP over the dose range of test compound in a dose-responsive manner. […]

[2] = target: T2, E. coli PBP3 (Escherichia coli, UniProt P0AD68); test: as above; settings: 15 min. pre-incubation, membrane protein extracts, SDS-PAGE fluorescence scan
T2 construct: 100 μg's of total membrane protein extracts containing PBPs; endogenous in cells; host or cells: Escherichia coli K12 membrane fraction
Procedure: as §1, §2, §3

[3] = test system: E. coli PBP1b; test: as above; design: species or system Escherichia coli; settings: 15 min. pre-incubation, membrane protein extracts, SDS-PAGE fluorescence scan
Procedure: as §1
Penicillin binding proteins were isolated from Escherichia coli K12 by growth of Escherichia coli K12 from a single colony in 4 L of Luria-Bertani (LB) broth at 35° C. and 250 rpm to an OD600 nm of 0.5. The cells were harvested by centrifugation at 7,000×g for 10 min. at 4° C. Cells were resuspended and washed in 50 mM potassium phosphate pH 7.5. […] The membrane proteins are washed twice with 10 mM sodium phosphate pH 7, resuspended in a volume of 5 mL, quantitated by BCA assay, adjusted to 10 μg/mL and frozen at −80° C. until use.
The adapted Bocillin FL competition binding assay described herein incorporates a 15 min. pre-incubation of test compound with isolated PBPs to attempt to balance the difference in mechanism of inhibition between beta-lactams (largely irreversible covalent bond to active site Serine) and the boron-containing PBP inhibitor test compounds (reversible covalent bond to active site Serine). […] The SDS-PAGE gel, post-electrophoresis, is then washed in water to remove excess SDS for 10 minutes at room temperature and placed on the scanning bed of a GE Healthcare/Amersham Biosciences Storm 860 fluorescence scanner. […]

[4] = test system: S. aureus ATCC 29213; test: Broth microdilution MIC assay; type: cell-based; settings: Staphylococcus aureus, ATCC29213; broth microdilution, 16-20 hours at 37° C.; read-out: S. aureus 29213 MIC
Summary of the method: (§4)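 Following CLSI procedures, compounds were serially diluted 2-fold and challenged with bacteria at 5×10^5 CFU/mL in Mueller-Hinton broth supplemented with divalent cations. After 16-20 hours at 37° C, the lowest concentration without visible growth was recorded as the MIC.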

[5] = test system: hyper-permeable E. coli 901C; test: Broth microdilution MIC assay; type: cell-based; settings: Escherichia coli, read-out: E. coli 901C MIC
Summary of the method: as §4

[6] = test system: E. coli DH5α/pLBII-CTX-M15; test: Broth microdilution MIC assay, engineered strain producing CTX-M15; type: cell-based, Escherichia coli; settings: Escherichia coli, read-out: E. coli DH5α/pLBII-CTX-M15 Microbiological Activity (MIC)
Summary of the method: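 CLSI broth microdilution in cation-supplemented Mueller-Hinton broth, 2-fold compound dilutions, 5×10^5 CFU/mL inoculum, 16-20 h at 37° C, MIC read visually as lowest concentration without growth. E. coli DH5α carries CTX-M15 on pLBII under Lac promoter, or empty pLBII as control.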

T1 sequence (P02918 whole entry): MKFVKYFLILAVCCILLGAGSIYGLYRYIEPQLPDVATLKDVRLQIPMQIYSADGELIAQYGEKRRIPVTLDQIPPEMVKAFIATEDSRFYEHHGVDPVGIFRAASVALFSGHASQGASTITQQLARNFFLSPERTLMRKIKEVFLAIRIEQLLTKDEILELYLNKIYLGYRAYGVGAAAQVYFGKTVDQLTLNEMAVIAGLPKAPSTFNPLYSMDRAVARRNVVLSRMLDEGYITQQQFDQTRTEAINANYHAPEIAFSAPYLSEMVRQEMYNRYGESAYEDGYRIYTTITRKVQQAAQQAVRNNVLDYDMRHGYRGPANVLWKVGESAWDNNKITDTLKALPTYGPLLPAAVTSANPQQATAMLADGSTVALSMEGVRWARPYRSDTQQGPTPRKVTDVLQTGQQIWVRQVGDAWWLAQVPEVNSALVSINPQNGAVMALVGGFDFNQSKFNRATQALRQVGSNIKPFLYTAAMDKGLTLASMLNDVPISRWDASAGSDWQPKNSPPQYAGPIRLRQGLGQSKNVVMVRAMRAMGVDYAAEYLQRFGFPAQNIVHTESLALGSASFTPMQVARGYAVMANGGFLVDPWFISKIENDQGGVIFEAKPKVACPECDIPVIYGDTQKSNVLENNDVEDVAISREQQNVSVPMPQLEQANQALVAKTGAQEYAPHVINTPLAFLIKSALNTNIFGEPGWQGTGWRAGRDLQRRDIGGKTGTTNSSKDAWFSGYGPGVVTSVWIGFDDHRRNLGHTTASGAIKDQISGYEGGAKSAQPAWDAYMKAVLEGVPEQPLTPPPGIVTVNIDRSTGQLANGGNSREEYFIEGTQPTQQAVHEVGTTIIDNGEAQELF
T2 sequence (P0AD68 1-577): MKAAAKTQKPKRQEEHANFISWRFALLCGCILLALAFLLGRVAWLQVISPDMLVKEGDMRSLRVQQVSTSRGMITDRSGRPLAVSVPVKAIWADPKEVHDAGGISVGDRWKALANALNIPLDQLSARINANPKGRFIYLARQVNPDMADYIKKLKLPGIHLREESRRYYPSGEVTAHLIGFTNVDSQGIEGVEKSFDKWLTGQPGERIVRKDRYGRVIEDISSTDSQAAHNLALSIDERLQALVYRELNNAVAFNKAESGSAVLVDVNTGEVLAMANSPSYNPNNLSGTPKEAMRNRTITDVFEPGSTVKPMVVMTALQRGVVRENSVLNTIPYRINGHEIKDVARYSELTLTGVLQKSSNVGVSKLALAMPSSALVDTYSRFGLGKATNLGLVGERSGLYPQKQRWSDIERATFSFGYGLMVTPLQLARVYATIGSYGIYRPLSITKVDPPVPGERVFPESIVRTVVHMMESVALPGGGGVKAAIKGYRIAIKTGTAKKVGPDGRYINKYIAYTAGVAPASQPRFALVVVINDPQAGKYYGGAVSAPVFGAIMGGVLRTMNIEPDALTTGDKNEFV

With `CCN1CCN(C(=O)NC(C(=O)N[C@H]2Cc3cccc(C(=O)O)c3OB2O)c2csc(N)n2)C(=O)C1=O` (stereo partly drawn) [Example 12, (3R)-3-(2-(2-aminothiazol-4-yl)-2-(4-ethyl-2,3-dioxopiperazine-1-carboxamido)acetamido)-2-hydroxy-3,4-dihydro-2H-benzo[e][1,2]oxaborinine-8-carboxylic acid] the “E. coliK12 PBP1a Potency” value [1] was “B (B represents a potency between 64 and 1000 μg/mL inclusive)”, the “E. coli PBP3 Potency” value [2] was “A (A represents a potency of >1000 μg/mL)” and the “E. coli PBP1b Potency” value [3] was “C (C represents a potency of <64 μg/mL)”. For the same compound, the MIC [4] was 64 to 128 µg/mL, the MIC [5] was under 64 µg/mL and the MIC [6] was 8 to 16 µg/mL.
